Reference: publication PMC6766590, “Protocatechuic acid from chicory is bioavailable and undergoes partial glucuronidation and sulfation in healthy humans” (Food Science & Nutrition, 2019)
Like-named read-outs stand apart in the source and are kept apart here. One block for each compound: values may come before it.

Key:
[1] = Single-dose pharmacokinetic trial, serum protocatechuic acid and conjugates after 150 g of chicory; assay type: in vivo, human
Protocol: (§1) A single-dose pharmacokinetic trial was conducted to evaluate the acute (24 hr) bioavailability of protocatechuic acid from chicory juice. Qualified participants were asked to consume foods low in phytochemicals for three days prior to the chicory juice intervention. Participants were also asked to consume a diet without vegetables, fruits, and plant-based beverages for the day prior to the intervention and the intervention day. The purpose of these dietary restrictions was to reduce any residual dietary phenolic compounds from the body (these compounds are typically cleared from blood, urine, and feces within 48 hr of consumption) and to ensure phenolic compounds present in the blood, urine, and feces samples collected during the intervention were derived from the chicory juice alone. Prior to administering the chicory juice, overnight fasting blood, urine, and feces (first-morning void) were collected at time 0 hr as the baseline. A single dose of chicory juice (150 g of chicory) was then orally ingested by each of the participants under close observation by the researcher in 5 min. No other foods or beverages were provided at this time. The chicory juice was prepared together approximately 10 min prior to this pharmacokinetic trial. One portion of chicory juice was kept to quantify the content of protocatechuic acid. […] Fecal samples from 0-24 hr after chicory juice drinking were collected. […] Mycophenolic acid was selected as the internal standard. The pharmacokinetic parameters of protocatechuic acid in the free, glucuronide, and sulfate conjugates were calculated using DAS 2.1 (BioGuider Co.), with a noncompartmental model: maximum serum concentrations (Cmax); time to achieve maximum serum concentrations (Tmax); the area under the concentration-time curve to 24 hr (AUC0-24); and terminal elimination half-life (T1/2z). The apparent bioavailability of protocatechuic acid together was quantified using AUC0-24 divided by its ingested amount. Urinary and fecal recoveries were calculated using the total content of urinary and fecal protocatechuic acid divided by its ingested amount.

[2] = Urinary excretion/recovery of protocatechuic acid and conjugates after 150 g of chicory; assay type: in vivo, human
Protocol: as §1

[3] = Fecal excretion/recovery of protocatechuic acid and conjugates after 150 g of chicory; assay type: in vivo, human
Protocol: as §1

[4] = tested on: human fecal suspensions with gut microbiota; conditions: for Substrate recovered at the initial time point from the fecal suspensions: 0 hr, initial substrate dose 1 µmol; for Substrate amount in human fecal suspension: initial dose 1 µmol, 37°C anaerobic
Protocol: The column was a Zorbax SB‐C18 column (250 mm × 4.6 mm, 5.0 µm). […] Quantification of phenolic acids was carried out by an internal standard method using calibration curves. […] For each analytical run, a standard curve was prepared in the appropriate matrix (methanol, blank serum, urine, or feces) and used to determine the content of phenolic acids in chicory or biological samples. The detection limit for phenolic acids (10‐fold baseline noise) under the conditions used in this study was 1 ng/ml in serum and 5 ng/ml in urine and feces, and values below this concentration were reported as zero. […] Mycophenolic acid was selected as the internal standard.
Fresh feces (2 g) collected from human adults were mixed with 10 ml of brain–heart infusion medium, and the resulting solution was filtered with autoclaved gauze to remove the dregs before use. […] The mixture was fermented at 37°C under anaerobic conditions using the anaerobic chamber. […] All incubations were performed in triplicate. At the same time, the fecal suspension was incubated without phenolic acids as a negative control.

[5] = design: method as in Wang, Zou, et al., 2011; conditions: ApoE^‐/‐ mice, single oral gavage 25 mg/kg; ref Wang, Zou, et al., 2011; cited from earlier work
[6] = design: method as in Chen et al., (2012); conditions: CF‐1 mice, oral 50 mg/kg; ref Chen et al., (2012); cited from earlier work
mouse gut microbiota = tested on: mouse gut microbiota; design: method as in Lin et al., 2016; conditions: ref Lin et al., 2016; cited from earlier work
human gut microbiota = tested on: human gut microbiota; design: method as in Gonthier et al., 2006; conditions: ref Gonthier et al., 2006; cited from earlier work

SMILES: O=C(O)c1ccc(O)c(O)c1 [PCA‐F, 3,4‐dihydroxybenzoic acid]
T1/2z, terminal elimination half‐life ([1]; 16 healthy adults, 150 g of chicory oral, serum): 1.72 ± 0.35 h
Recovery in blood circulation ([1]; 16 healthy adults, 150 g of chicory oral, AUC0‐24 divided by ingested amount): 15.60% ± 4.21%
half-life ([1]; both sexes, human, serum, 16 healthy adults, 150 g of chicory oral, read-out: T1/2z in serum (converted)): 1.72 ± 0.35 h
AUC(0-t) ([1]; both sexes, human, 16 healthy adults, 150 g of chicory oral, serum, read-out: AUC0−24, area under the concentration–time curve to 24 hr): 16.9 ± 3 µM·h
Cmax ([1]; both sexes, human, 16 healthy adults, 150 g of chicory oral, serum, read-out: Maximum (peak) serum concentration, Cmax): 3.27 µM
Tmax ([1]; both sexes, human, 16 healthy adults, 150 g of chicory oral, serum, read-out: Time of peak serum concentration): 1 h
Ingested protocatechuic acid recovered in the blood circulation, urine, and feces together ([1]; both, human, in vivo, po): 48.74%
Recovery in blood circulation ([1]; both, human, in vivo, po): about 23.79 % of the ingested dose
AUC(0-t) ([1]; female, human, oral, women, n = 8, 150 g of chicory, serum, read-out: AUC0−24): 17.2 ± 1.81 µM·h
Cmax ([1]; female, human, oral, women, n = 8, 150 g of chicory, serum, read-out: Cmax): 3.45 µM
half-life ([1]; female, human, oral, women, n = 8, 150 g of chicory, serum, read-out: T1/2z (converted)): 1.81 ± 0.48 h
Tmax ([1]; female, human, oral, women, n = 8, 150 g of chicory, serum, read-out: Tmax): 1 h
AUC(0-t) ([1]; male, human, oral, men, n = 8, 150 g of chicory, serum, read-out: AUC0−24): 16.6 ± 1.63 µM·h
Cmax ([1]; male, human, oral, men, n = 8, 150 g of chicory, serum, read-out: Cmax): 3.1 µM
half-life ([1]; male, human, oral, men, n = 8, 150 g of chicory, serum, read-out: T1/2z (converted)): 1.63 ± 0.04 h
Tmax ([1]; male, human, oral, men, n = 8, 150 g of chicory, serum, read-out: Tmax): 1 h
Recovery in blood circulation ([1]; men, n = 8, 150 g of chicory): 17.18 ± 4.05 % of the ingested dose
Recovery in blood circulation ([1]; women, n = 8, 150 g of chicory): 14.01 ± 3.74 % of the ingested dose
Recovery in urine ([2]; 16 healthy adults, 150 g of chicory oral, 0-24 hr urine): 12.17 % of the ingested dose
Time at which urinary excretion reached the plateau ([2]; 16 healthy adults, after chicory juice consumption): 6 h
dose excreted ([2]; human, 150 g of chicory (as juice), 16 healthy adults, 150 g of chicory oral, 0-24 hr urine): 5.02%
Recovery in urine ([2]; men, n = 8, 150 g of chicory): 5.66 ± 3.87 % of the ingested dose
Recovery in urine ([2]; women, n = 8, 150 g of chicory): 4.38 ± 2.28 % of the ingested dose
Recovery in feces ([3]; 16 healthy adults, 150 g of chicory oral, 0-24 hr feces): 12.79 % of the ingested dose
Mean content in feces ([3]; 16 healthy adults, feces 0-24 hr after 150 g of chicory): 8.00 ± 3.17 µmol
dose excreted ([3]; human, 150 g of chicory (as juice), 16 healthy adults, 150 g of chicory oral, 0-24 hr feces): 3.25%
Recovery in feces ([3]; men, n = 8, 150 g of chicory): 2.52 ± 0.87 % of the ingested dose
Recovery in feces ([3]; women, n = 8, 150 g of chicory): 3.97 ± 1.38 % of the ingested dose
Formation of protocatechuic acid from gallic, caffeic, 5‐caffeoylquinic, caftaric or chicoric acid in human fecal suspensions ([4]; 1 µmol substrate, up to 24 hr, listed as protocatechuic acid): could not be detected
Maximal level in plasma [5]: approximately 4.3 µM
Peak plasma level [6]: 73.6 µM

SMILES: O=C(O)/C=C/c1ccc(O)c(O)c1 [Caffeic acid]
Substrate recovered at the initial time point from the fecal suspensions [4]: 86.0 ± 3.0%
Substrate amount in human fecal suspension ([4]; incubation time 0 h): 0.86 ± 0.03 µmol
Substrate amount in human fecal suspension ([4]; incubation time 6 h): 0.16 ± 0.11 µmol

Substrate recovered at the initial time point from the fecal suspensions [4]: 79.3 ± 5.7%
Substrate amount in human fecal suspension ([4]; incubation time 0 h): 0.79 ± 0.06 µmol
SMILES: O=C(/C=C/c1ccc(O)c(O)c1)O[C@@H]1C[C@@](O)(C(=O)O)C[C@@H](O)[C@@H]1O [5‐caffeoylquinic acid]

SMILES: O=C(O)c1cc(O)c(O)c(O)c1 [Gallic acid]
Substrate recovered at the initial time point from the fecal suspensions [4]: 95.8 ± 3.3%
Substrate amount in human fecal suspension ([4]; incubation time 0 h): 0.96 ± 0.03 µmol
Substrate amount in human fecal suspension ([4]; incubation time 6 h): 0.75 ± 0.14 µmol
Substrate amount in human fecal suspension ([4]; incubation time 12 h): 0.60 ± 0.18 µmol
Substrate amount in human fecal suspension ([4]; incubation time 24 h): 0.27 ± 0.23 µmol

SMILES: O=c1c(O)c(-c2ccc(O)c(O)c2)oc2cc(O)cc(O)c12 [quercetin]
Catabolism into protocatechuic acid by mouse gut microbiota (mouse gut microbiota): intensively catabolized into protocatechuic acid

Substrate recovered at the initial time point from the fecal suspensions [4]: 91.5% ± 4.7%
Substrate amount in human fecal suspension ([4]; incubation time 0 h): 0.92 ± 0.05 µmol
SMILES: O=C(/C=C/c1ccc(O)c(O)c1)O[C@@H](C(=O)O)[C@@H](O)C(=O)O [Caftaric acid]
Generation of protocatechuic acid by human gut microbiota metabolism (human gut microbiota): cannot generate protocatechuic acid

SMILES: O=c1cc(-c2ccc(O)cc2)oc2cc(O)cc(O)c12 [apigenin]
Catabolism into protocatechuic acid by mouse gut microbiota (mouse gut microbiota): intensively catabolized into protocatechuic acid
